# US6294568A, “5-arylpyrrole derivatives” (priority 1997, dated 2001)
# Key:
# Human COX-1 = biological target: T1, Human COX-1 (Homo sapiens, UniProt P23219); experiment: Human COX-1 Inhibitory Activity Test (TXB2 in blood); format: cell-based; conditions: IC50 from Hill Plot
# T1 construct: endogenous in cells; host or cells: whole blood of a healthy human donor (own knowledge: TXB2 of clotting blood comes from platelet COX-1)
# Experimental: (§1) COX-1 and COX-2 activities were measured according to the method of Patrignani et al. (J. Pharm. Exp. Ther. Vol. 271, 1705 (1994)).
# (1) COX-1 activity was measured in the following procedure. […] The serum obtained by 10 minutes of centrifugation at 2000 rpm at 4° C. was stored at -40° C. until the measurement of the amount of thromboxane B2 (TXB2). The test samples, which had been dissolved in ethanol and diluted to the specified concentrations, were previously dispensed into the glass test tubes, and the solvent was evaporated to dryness by Centrifugal Vaporizer (CVE-200D, manufactured by Tokyo Rika Mfg. Co., Ltd.) so that the test samples were added to the plasma.
# (3) The measurement for the TXB2 content was conducted in the following procedure. In a part of a 96 well plate coated with anti-rabbit IgG antibody, 2 wells were allotted respectively to blank well, Non-specific Binding (NSB) well, Maximum Binding (B0) well, standard wells at 7 concentrations of TXB2 (1000 pg/ml) in doubling dilution ranging from 1000-15.6 pg/ml. The rest of the wells were used for the measurement of the samples. EIA buffer was added to the NSB wells (100 μl ) and B0 wells (50 μl), respectively. 50 μl of each of the standard dilution was added in an order from thinner to thicker concentrations. Each of the samples was added to the rest of the wells in an amount of 50 μl. Then, 50 μl of TXB2 tracer was added to each of the wells except for the blank wells. Further, 50 μl of TXB2 antibody was added to each of the wells except for the NSB wells and blank wells, then the well plate was covered with a plastic film and the reaction continued for 18 hours at room temperature. When the reaction was terminated, the wells were washed 5 times with a wash buffer. 200 μl of Elman's reagent was added to each of the wells and then the well plate was covered with a plastic film and developed for 60 minutes in a dark place. The absorbance at 405 nm was measured by an Immuno Reader (NJ-2000, manufactured by Nippon Intermed Co., Ltd.). From the measurement result, %B/B0 was calculated and, applying it to the approximation formula of Hill Plot, the concentration of the samples was determined to be 2,000 times concentration. […]
# Human COX-2 = biological target: T2, Human COX-2 (Homo sapiens, UniProt P35354); experiment: Human COX-2 Inhibitory Activity Test (LPS-induced PGE2 in blood); format: cell-based; conditions: for IC50: human blood, LPS, PGE2, IC50 from Hill Plot; for COX-1/COX-2: ratio of IC50 COX-1 to COX-2
# T2 construct: endogenous in cells; host or cells: heparinised whole blood of a healthy human donor pretreated with aspirin, stimulated with LPS (own knowledge: COX-2 is induced in monocytes)
# T2 sequence (P35354 18-604): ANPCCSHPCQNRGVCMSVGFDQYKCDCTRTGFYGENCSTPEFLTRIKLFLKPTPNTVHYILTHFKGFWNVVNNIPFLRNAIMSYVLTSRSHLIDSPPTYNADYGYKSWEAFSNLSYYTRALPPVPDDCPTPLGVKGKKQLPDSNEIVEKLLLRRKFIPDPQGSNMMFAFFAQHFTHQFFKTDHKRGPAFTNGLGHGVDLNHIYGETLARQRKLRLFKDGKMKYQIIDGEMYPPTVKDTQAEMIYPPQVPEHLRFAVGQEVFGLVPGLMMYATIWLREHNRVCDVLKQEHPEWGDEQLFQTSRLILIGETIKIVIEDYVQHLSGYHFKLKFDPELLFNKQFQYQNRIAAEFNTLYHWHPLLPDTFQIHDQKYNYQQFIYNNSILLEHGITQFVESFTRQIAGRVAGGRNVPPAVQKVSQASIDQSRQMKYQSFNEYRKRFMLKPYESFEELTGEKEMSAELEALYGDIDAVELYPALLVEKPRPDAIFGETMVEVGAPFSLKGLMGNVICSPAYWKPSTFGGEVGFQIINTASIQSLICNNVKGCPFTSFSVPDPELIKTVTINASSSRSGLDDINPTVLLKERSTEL
# Experimental: as §1
# (2) COX-2 activity was measured in the following procedure. To blood collected from a healthy normal who had taken 330 mg of aspirin 48 hours before the blood collection in order to inhibit the COX-1 activity, 10 unit/ml of sodium heparin was added, and then pipetted into glass test tubes by 1 ml. 10 μg/ml of Lipopolysaccharide (LPS) was added thereto and the plasma obtained by the specified operation was stored at -40° C. until the measurement for the amount of prostaglandin E2 (PGE2). Test samples containing the test samples were treated in the same manner of operation as described above.
# (4) The measurement for the PGE2 content was conducted in the following procedure. In a part of 96 well plate coated with goat anti-mouse antibody, 2 wells were alloted respectively to a blank well, Non-specific Binding (NSB) well, Maximum Binding (B0) well, standard wells at seven concentrations of PGE2 (1000 pg/ml) in doubling dilution ranging from 1000-15.6 pg/ml. The rest of the wells were used for the sample measurement. EIA buffer was added to the NSB wells (100 μl) and to the B0 wells (50 μl), respectively. 50 μl of each of the standard dilution was added in an order from thinner to thicker concentrations. Each of the samples was added to the rest of the wells in an amount of 50 μl. Then, 50 μl of PGE2 tracer was added to each of the wells except for blank wells. Further, 50 μl PGE2 monoclonal antibody was added to each of the wells except for the NSB wells and blank wells, then the well plate was covered with a plastic film and the reaction continued at room temperature for 18 hours. When the reaction was terminated, the wells were washed 5 times with a wash buffer. 200 μl of Elman's reagent was added to each of the wells, and then the well plate was covered with a plastic film and developed for 60 minutes in a dark place. The absorbance at 405 nm was measured by an Immuno Reader (NJ-2000, manufactured by Nippon Intermed Co., Ltd.). From the measurement result, %B/B0 was calculated and, applying it to the approximation formula of Hill Plot, the concentration of the samples was determined to be 40 times concentration. The dilution was conducted with an EIA buffer throughout the Test Example 3.
# carrageenan footedema = experiment: Carrageenan Footedema Suppression Test; format: in vivo, SD rats; conditions: oral; paw volume three hours after carrageenan administration
# Experimental: The carrageenin footedema suppression test was conducted according to the method of Winter et al. (J. Pharm. Exp. Ther., Vol.141, 369 (1963)). The test samples suspended in Tween 80 were administered orally to SD rats (6 rats per 1 group) in an amount of 1 ml per 100 g of the body weight, while only the solvent was administered in the same manner as above as a control. One hour after the administration, 1% carrageenan physiological saline was injected subcutaneously to the rats in the plantar area of the right hind paw. Three hours after the carrageenan administration, the paw volumes were measured and the edematization rate (%) was calculated with Formula 1 and then edematization suppression rate (%) was calculated with Formula 2.
# Edematization rate (%)=((paw volume after carrageenan injection- paw volume before carrageenan injection)/(paw volume before carrageenan injection)×100 Formula: 1
# Edematization suppression rate (%)=((edematization rate of control-
# edematization rate of test samples)/edematization rate of […]
# T1 sequence (P23219 24-599): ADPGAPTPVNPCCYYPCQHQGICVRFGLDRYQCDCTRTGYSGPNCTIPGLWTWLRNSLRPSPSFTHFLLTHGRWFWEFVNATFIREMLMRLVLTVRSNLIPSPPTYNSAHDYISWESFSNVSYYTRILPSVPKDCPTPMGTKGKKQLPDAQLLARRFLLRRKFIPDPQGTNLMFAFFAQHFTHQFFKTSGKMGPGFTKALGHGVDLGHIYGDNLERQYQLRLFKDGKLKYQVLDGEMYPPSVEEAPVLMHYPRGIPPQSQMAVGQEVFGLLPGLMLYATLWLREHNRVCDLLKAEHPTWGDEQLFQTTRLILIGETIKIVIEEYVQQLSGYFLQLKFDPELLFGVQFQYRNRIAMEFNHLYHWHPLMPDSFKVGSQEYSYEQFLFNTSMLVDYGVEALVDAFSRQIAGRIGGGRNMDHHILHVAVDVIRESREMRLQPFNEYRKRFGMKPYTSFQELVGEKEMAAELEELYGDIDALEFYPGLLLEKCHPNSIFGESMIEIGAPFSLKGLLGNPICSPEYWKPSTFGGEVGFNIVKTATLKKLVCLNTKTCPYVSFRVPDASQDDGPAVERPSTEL
SMILES,IC50 (Human COX-1),IC50 (Human COX-2),COX-1/COX-2 (Human COX-2),Edematization Suppression rate (carrageenan footedema)
"COc1ccc(-c2cc(C)[nH]c2-c2ccc(OC)cc2)cc1 [Control compound (a), 4,5-bis(4-methoxyphenyl)-2-methyl-1H-pyrrole, reference compound]",1 nM,4820 nM,< 0.1,23.4%
"Cc1cc(-c2cccc(Cl)c2)c(-c2ccc(S(C)(=O)=O)cc2)[nH]1 [Preparation Example 4, 4-(3-chlorophenyl)-2-methyl-5-(4-methylsulfonylphenyl)-1H-pyrrole]",> 100000 nM,164 nM,> 610,30.1%
"Cc1cc(-c2ccc(F)cc2F)c(-c2ccc(S(C)(=O)=O)cc2)[nH]1 [Preparation Example 7, 4-(2,4-difluorophenyl)-2-methyl-5-(4-methylsulfonylphenyl)-1H-pyrrole]",30600 nM,144 nM,212,34.5%
"Cc1cc(-c2ccc(F)c(F)c2)c(-c2ccc(S(C)(=O)=O)cc2)[nH]1 [Preparation Example 8, 4-(3,4-difluorophenyl)-2-methyl-5-(4-methylsulfonylphenyl)-1H-pyrrole]",26700 nM,219 nM,> 457,26.7%
"Cc1cc(-c2ccc(F)c(Cl)c2)c(-c2ccc(S(C)(=O)=O)cc2)[nH]1 [Preparation Example 10, 4-(3-chloro-4-fluorophenyl)-2-methyl-5-(4-methylsulfonylphenyl)-1H-pyrrole]",84000 nM,274 nM,307,25.7%
"CCc1cc(-c2ccc(F)cc2)c(-c2ccc(S(C)(=O)=O)cc2)[nH]1 [Preparation Example 11, 2-ethyl-4-(4-fluorophenyl)-5-(4-methylsulfonylphenyl)-1H-pyrrole]",9900 nM,84 nM,118,
"CSc1ccc(-c2cc(C)[nH]c2-c2ccc(S(C)(=O)=O)cc2)cc1 [Preparation Example 18, 4-(4-methylthiophenyl)-2-methyl-5-(4-methylsulfonylphenyl)-1H-pyrrole]",12600 nM,123 nM,102,48.9%
"Cc1cc(-c2ccc(N(C)C)cc2)c(-c2ccc(S(C)(=O)=O)cc2)[nH]1 [Preparation Example 19, 4-(4-dimethylaminophenyl)-2-methyl-5-(4-methylsulfonylphenyl)-1H-pyrrole]",,747 nM,> 134,43.2%
"Cc1cccc(-c2cc(C)[nH]c2-c2ccc(S(C)(=O)=O)cc2)c1 [Preparation Example 21, 4-(3-methylphenyl)-2-methyl-5-(4-methylsulfonylphenyl)-1H-pyrrole]",39200 nM,129 nM,304,31.6%
"Cc1cc(-c2cccc(N(C)C)c2)c(-c2ccc(S(C)(=O)=O)cc2)[nH]1 [Preparation Example 23, 4-(3-dimethylaminophenyl)-2-methyl-5-(4-methylsulfonylphenyl)-1H-pyrrole]",,346 nM,> 289,

# Further lines, with some results ahead:
IC50 (Human COX-1),IC50 (Human COX-2),COX-1/COX-2 (Human COX-2),SMILES,Edematization Suppression rate (carrageenan footedema)
,310 nM,> 323,"COc1ccc(-c2cc(C)[nH]c2-c2ccc(S(C)(=O)=O)cc2)cc1Cl [Preparation Example 28, 4-(3-chloro-4-methoxyphenyl)-2-methyl-5-(4-methylsulfonylphenyl)-1H-pyrrole]",
,442 nM,> 226,"Cc1cc(-c2ccc(N(C)C)c(C)c2)c(-c2ccc(S(C)(=O)=O)cc2)[nH]1 [Preparation Example 32, 4-(4-N,N-dimethylamino-3-methylphenyl)-2-methyl-5-(4-methylsulfonylphenyl)-1H-pyrrole]",
,300 nM,> 339,"Cc1cc(C#Cc2ccccc2)c(-c2ccc(S(C)(=O)=O)cc2)[nH]1 [Preparation Example 48, 4-phenylethynyl-2-methyl-5-(4-methylsulfonylphenyl)-1H-pyrrole]",40.1%
,454 nM,> 220,"CS(=O)(=O)c1ccc(-c2[nH]c(CCC(=O)O)cc2-c2ccc(F)cc2)cc1 [Preparation Example 50, 4-(4-fluorophenyl)-5-(4-methylsulfonylphenyl)-1H-pyrrole-2-propionic acid]",28.9%
50400 nM,110 nM,458,"Cc1cc(-c2ccc(F)c(F)c2F)c(-c2ccc(S(C)(=O)=O)cc2)[nH]1 [Preparation Example 52, 4-(2,3,4-trifluorophenyl)-2-methyl-5-(4-methylsulfonylphenyl)-1H-pyrrole]",
,162 nM,617,"Cc1cc(F)cc(-c2cc(C)[nH]c2-c2ccc(S(C)(=O)=O)cc2)c1 [Preparation Example 53, 4-(3-fluoro-5-methylphenyl)-2-methyl-5-(4-methylsulfonylphenyl)-1H-pyrrole]",
